From patent publication US20100239556A1, “PROMOTING ECM PRODUCTION BY FIBROBLAST CELLS AND/OR PROMOTING MIGRATION OF FIBROBLAST CELLS IN A BIOLOGICAL SYSTEM” (TGR BioScience Pty Ltd., priority 2006, published 2010)

B1: horse radish peroxidase (protein, UniProt P00433 31-338, looked up)
Peroxidase C1A: QLTPTFYDNSCPNVSNIVRDTIVNELRSDPRIAASILRLHFHDCFVNGCDASILLDNTTSFRTEKDAFGNANSARGFPVIDRMKAAVESACPRTVSCADLLTIAAQQSVTLAGGPSWRVPLGRRDSLQAFLDLANANLPAPFFTLPQLKDSFRNVGLNRSSDLVALSGGHTFGKNQCRFIMDRLYNFSNTGLPDPTLNTTYLQTLRGLCPLNGNLSALVDFDLRTPTIFDNKYYVNLEEQKGLIQSDQELFSSPNATDTIPLVRSFANSTQTFFNAFVEAMDRMGNITPLTGTQGQIRLNCRVVNSNS

Assays:
[1] = tested on: human skin; assay: Collagen I and III immunohistochemistry in ex vivo human skin (Franz cell); settings: intradermal injection 100 μl, 72 hours
Description: To confirm proteins with peroxidise activity can stimulate ECM production in human skin, studies were performed on ex vivo skin collected from tissue reduction surgery. The studies were undertaken using a modification of the OECD Test Guideline 428 (2004) Skin Absorption: in vitro method. Freshly excised human skin was collected in a
Hanks balanced salt solution (HBSS) and after being thoroughly washed in sterile, colour free DMEM/F12 media (Dulbecco's Modified Eagle Medium/Hams F12, Invitrogen) to remove surface debris, the subcutaneous fat layer was removed. Circles of full-thickness skin 15 mm in diameter were cut and placed epidermis side up on vertical glass diffusion cells of a Franz cell diffusion system (Crown Glass Co, NJ, USA). The skin was secured between two clamped ground glass joints and allowed to equilibrate and hydrate for approximately 30 minutes with the receptor chambers of the diffusion cells containing colour-free DMEM/F12+1% (v/v) of an antibiotic mix (200 mM L-glutamine, 10,000 units penicillin, 10 mg streptomycin per ml; Sigma, USA). The temperature of the jacketed diffusion cells was maintained at 34° C.±1° C. and the contents were constantly stirred using a mini magnetic stirrer. Proteins with peroxidase activity or a control were injected intradermally into the skin discs in a volume of 100 μl using a 27 gauge needle. After 72 hours the skin discs were removed and bisected with one half fixed in 4% buffered formalin for histological assessment and the other half snap frozen in liquid nitrogen for immunohistochemical detection of collagen I and III protein within the dermis. Frozen skin pieces were processed into cryoblocks, cut onto slides and fixed in acetone/methanol. All slides were blocked with 2% (w/v) bovine serum albumin (BSA) in HBSS and then incubated with either anti-human collagen type I or III primary antibodies (Chemical Credential, ICN or DakoCytomation respectively). The secondary antibody was biotinylated Multi-Link (DakoCytomation) with detection by streptavidin-biotinylated alkaline phosphatase (DakoCytomation). Visualisation was achieved by incubating each section with Naphthol AS/MX phosphate/fast red substrate containing 5 mM levamisole (Sigma). After washing, slides were counter stained with Mayer's Haematoxylin and assessed for collagen expression.

[2] = tested on: human foreskin fibroblast cells (HFF cells); assay: Repeated stimulation of collagen I production; format: cell-based; settings: for total collagen I, stimulated twice versus once within a seven day culture period: day 0-2 plus day 2-7 versus day 0-7; for collagen I production after a second stimulation relative to the first stimulation: restimulated after 48 hours, further 5 days
Description: Experiments were performed to ensure human fibroblast cells could be stimulated to increase ECM protein production by proteins having peroxidase activity after more than one application of the proteins having peroxidase activity. The capacity to respond repeatedly to the proteins having peroxidase activity provides important utility for the generation of ECM in vitro, particularly given that spent culture media needs to be replaced on a regular basis to maintain the viability of the cells. These experiments were performed using human foreskin fibroblast cells (HFF cells) seeded into 96 well plates at a density of 1.2×10^4 cells/well and cultured for one week in 10% fetal bovine serum/Dulbecco's minimum essential media (10% FBS/DMEM) at 37° C. and 5% CO2 (as described in Example 3). The confluent cells were then starved overnight in serum free DMEM and triplicate wells treated for six hours with MP, ARP and LP as representative proteins having peroxidase activity or the control agents transforming growth factor β2 (TGFβ2; R&D Systems) and 10% FBS (JRH BioSciences). After 48 hours, the conditioned media was collected for measurement of collagen I (as a representative ECM protein) and the cells either restimulated for six hours with fresh solutions containing proteins having peroxidase activity or control agents or the media was replaced with fresh serum free DMEM. The cells were cultured for a further 5 days after which the media was collected a second time for the measurement of collagen I. Media was also collected from replicate wells treated at the start of the experiment and left for 7 days (total culture period) for comparison.

[3] = tested on: fibroblast cells isolated from an adult subject; assay: Total protein incorporated into the extracellular matrix (silver stained gel); format: cell-based, human; settings: 10% FBS + 50 ug/ml ascorbic acid, 72 hours
Description: To ensure the soluble ECM proteins stimulated by the proteins with peroxidase activity are incorporated into the extracellular matrix generated by human fibroblast cells, given that this is a key requirement for the regeneration of collagen-rich tissues like skin and other organs and tissues, total proteins were extracted from the cell matrix. In these experiments, six well culture plates were seeded with fibroblast cells isolated from an adult subject at a density of 1.5×10^5 cells/well and after one week of culture, cells were treated with proteins with peroxidase activity in media containing 10% FBS and with the addition of ascorbic acid (vitamin C) which is a well known cofactor important for the cross linking of collagen molecules to generate polymeric fibres. Wells were supplemented daily to provide a final concentration of 50 ug/ml ascorbic acid in the media. After 72 hours the cell media was removed, the wells washed with warm PBS and the cell matrix extracted.
The total protein content of the cell matrix was solubilised by the addition of 500 ul/well of RIPA buffer (25 mM Tris-HCl pH7.4; 150 mM NaCl; 1% Triton X-100; 0.5% Na deoxycholate; 0.05% SDS). The cell matrix was scraped off the bottom of each well and the plates placed on a shaking platform for 10 minutes. The extracts were transferred to eppendorf tubes, vortexed vigorously and centrifuged at 12,000 rpm, 4° C. for 5 minutes. The DNA pellet was visualised and gently removed and the samples stored at −80° C. until assessment.
Total cell extracts were assessed by polyacrylamide gel electrophoresis. Samples were prepared by adding an appropriate amount of reduced loading buffer to neat cell extracts and boiling for 5 minutes. Samples were then loaded onto a 4-12% BisTris gradient gel (Invitrogen) together with molecular weight markers (Magic Mark XP and SeeBlue prestained markers; Invitrogen) and resolved for […] at 150V in a Novex mini-cell system (Invitrogen) using NuPage MES SDS running buffer. […]

Molecule	collagen III immuno-reactivity [1]	staining intensity for collagen I [1]	total collagen I, stimulated twice versus once within a seven day culture period [2]	collagen I production after a second stimulation relative to the first stimulation [2]	proteinaceous material in the extracellular matrix versus untreated control cells [3]
microperoxidase [MP]	increased collagen III staining	increased staining intensity for collagen I	responded in a similar way to cells treated with TGFβ2	at least equivalent to that obtained with the first stimulation	produced much more proteinaceous material
lactoperoxidase [LP]	did not appear to affect collagen III immuno-reactivity	increased staining intensity for collagen I	markedly greater total collagen I levels	at least equivalent to that obtained with the first stimulation	produced much more proteinaceous material
soy bean peroxidase [SBP]					produced much more proteinaceous material
Arthromyces ramosus peroxidase [ARP]			markedly greater total collagen I levels	produced a greater response when stimulated a second time	
B1	increased collagen III staining	increased staining intensity for collagen I			
